Experimental data: patent USRE30241E, “Esters of 3-(hydroxy or hydroxymethyl)-4-hydroxyphenyl aminomethyl ketones” (Sterling Drug Inc., priority 1970, dated 1980)
Read-outs that look alike come from different tables or passages of the source.

How the values were obtained:
heart rate = test: Cardiovascular studies: effect on the heart rate in the anesthetized dog; format: in vivo
Procedure: The effect of a rapid intravenous injection on the heart rate the heart rate was conducted in anesthetized dogs under normal respiration. A few open-chest dogs were also tested. Increase in heart rate was measured by using an electrocardiograph attached to the dog. Readings were taken every 0.5-1 minute for the first 10 minutes and every 2-5 minutes thereafter until recovery. In some cases, several doses and more than one compound were tested alternately in the same dog. The blood pressure effect was simultaneously recorded.

[1] = tested on: carbachol- or histamine-induced bronchoconstriction; test: Bronchodilator Test Method I, anesthetized dog, intravenous activity; format: in vivo; details: Canis lupus familiaris, read-out: Bronchodilatation; for inhibition in vivo at 0.005 mg/kg: 5 mcg/kg i.v.; for inhibition in vivo at 0.02 mg/kg: 20 mcg/kg i.v.; for inhibition in vivo at 0.08 mg/kg: 80 mcg/kg i.v.; for inhibition in vivo at 0.025 mg/kg: 25 mcg/kg i.v.; for inhibition in vivo at 0.1 mg/kg: 100 mcg/kg i.v.; for inhibition in vivo at 0.0005 mg/kg: 0.5 mcg/kg i.v.; for inhibition in vivo at 0.006 mg/kg: 6.0 mcg/kg i.v.
Outline: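 Pentobarbital-anesthetized (30 mg/kg i.v.), open-chest, artificially ventilated dogs were given i.v. carbachol (4-6 µg/kg) or histamine diphosphate (35-45 µg/kg). Test compound was given i.v. mixed with, after, or 1-10 min before the constrictor.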

[2] = tested on: carbachol- or histamine-induced bronchoconstriction; test: Bronchodilator Test Method I, anesthetized dog, intraduodenal activity; format: in vivo; details: Canis lupus familiaris, read-out: Bronchodilation; for inhibition in vivo at 0.025 mg/kg: 25 mcg/kg (salt) intraduodenal; for inhibition in vivo at 0.05 mg/kg: 50 mcg/kg (salt) intraduodenal; for inhibition in vivo at 0.005 mg/kg: 5 mcg/kg (salt) intraduodenal; for inhibition in vivo at 0.04 mg/kg: 40 mcg/kg (salt) intraduodenal; for inhibition in vivo at 0.16 mg/kg: 160 mcg/kg (salt) intraduodenal
Outline: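 Pentobarbital-anesthetized (30 mg/kg i.v.) open-chest dogs of 9-18 kg, artificially ventilated; airway pressure recorded via tracheal cannula transducer. Test solution injected intraduodenally; from 5 min, i.v. carbachol (4-6 μg/kg) or histamine diphosphate (35-45 μg/kg) challenges every 30-60 min gauged degree and duration of bronchodilation.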

[3] = tested on: guinea pig bronchioles constricted by carbachol; test: Bronchodilator Test Method II, in vitro perfused guinea pig lung
Procedure: In this method bronchodilator activity in vitro was determined by testing the effect of graded doses of the test compounds on guinea pig bronchioles constricted by carbachol, using the technique reported by Sollman and von Oettingen, Proc. Soc, Exp. Biol. Med., 25,692 (1928) as modified by Tainter, Pedden, and James, J. Pharm. Exp. Ther., 51, 371 (1934) and by Luduena, von Euler, Tullar, and Lands, Arch. intern. Pharmacol., III, 392 (1957).

[4] = Solubility and pH of salts; details: water

With CC(C)(C)NCC(O)c1ccc(OC(=O)C(C)(C)C)c(COC(=O)C(C)(C)C)c1 (stereo not drawn) [Example 135, 3-(pivalyloxymethyl)-4-(pivaloxy)-alpha-(tert-butylaminomethyl)benzyl alcohol methanesulfonate] the “Mean Maximal Increase in the Heart Rate” value (heart rate; 0.25 mcg/kg (salt) i.v.) was 5 Beats/Minute, the “Mean Maximal Increase in the Heart Rate” value (heart rate; 1 mcg/kg (salt) i.v.) was 10 Beats/Minute and the “Mean Maximal Increase in the Heart Rate” value (heart rate; 8 mcg/kg (salt) i.v.) was 17 Beats/Minute. It also gave an inhibition in vivo at 0.005 mg/kg ([1]; 5 min, 5 min) of 18%, an inhibition in vivo at 0.02 mg/kg ([1]; 5 min, 5 min) of 30% and an inhibition in vivo at 0.08 mg/kg ([1]; 5 min, 5 min) of 38%. It also gave an inhibition in vivo at 0.005 mg/kg ([1]; 0.5 h, 30 min) of 32%, an inhibition in vivo at 0.02 mg/kg ([1]; 0.5 h, 30 min) of 49% and an inhibition in vivo at 0.08 mg/kg ([1]; 0.5 h, 30 min) of 64%. It also gave an inhibition in vivo at 0.005 mg/kg ([1]; 1 h, 60 min) of 36%, an inhibition in vivo at 0.02 mg/kg ([1]; 1 h, 60 min) of 50% and an inhibition in vivo at 0.08 mg/kg ([1]; 1 h, 60 min) of 62%. For the same compound, the inhibition in vivo at 0.005 mg/kg ([1]; 2 h, 120 min) was 26%, the inhibition in vivo at 0.02 mg/kg ([1]; 2 h, 120 min) was 56% and the inhibition in vivo at 0.08 mg/kg ([1]; 2 h, 120 min) was 66%. It also gave an inhibition in vivo at 0.02 mg/kg ([1]; 3 h, 180 min) of 50%, an inhibition in vivo at 0.08 mg/kg ([1]; 3 h, 180 min) of 62% and an inhibition in vivo at 0.02 mg/kg ([1]; 4 h, 240 min) of 45%. It also gave an inhibition in vivo at 0.08 mg/kg ([1]; 4 h, 240 min) of 56%, an inhibition in vivo at 0.02 mg/kg ([1]; 5 h, 300 min) of 36% and an inhibition in vivo at 0.08 mg/kg ([1]; 5 h, 300 min) of 49%. For the same compound, the inhibition in vivo at 0.025 mg/kg ([2]; 5 min, 5 min) was 18%, the inhibition in vivo at 0.05 mg/kg ([2]; 5 min, 5 min) was 31% and the inhibition in vivo at 0.05 mg/kg ([2]; 0.5 h, 30 min) was 56%. It also gave an inhibition in vivo at 0.025 mg/kg ([2]; 1 h, 60 min) of 56%, an inhibition in vivo at 0.05 mg/kg ([2]; 1 h, 60 min) of 74% and an inhibition in vivo at 0.025 mg/kg ([2]; 2 h, 120 min) of 55%. It also gave an inhibition in vivo at 0.05 mg/kg ([2]; 2 h, 120 min) of 73%, an inhibition in vivo at 0.025 mg/kg ([2]; 3 h, 180 min) of 45% and an inhibition in vivo at 0.05 mg/kg ([2]; 3 h, 180 min) of 64%. For the same compound, the inhibition in vivo at 0.025 mg/kg ([2]; 4 h, 240 min) was 34%, the inhibition in vivo at 0.05 mg/kg ([2]; 4 h, 240 min) was 51% and the inhibition in vivo at 0.025 mg/kg ([2]; 5 h, 300 min) was 27%. The inhibition in vivo at 0.05 mg/kg ([2]; 5 h, 300 min) was 37% and the inhibition in vivo at 0.05 mg/kg ([2]; 6 h, after 6 hrs.) was 36%.

For Cc1cccc(C(=O)Oc2ccc(C(O)CNC(C)(C)C)cc2O)c1 (stereo not drawn) [Example 139, 3-hydroxy-4-(m-toluyloxy)-alpha-(tert-butylaminomethyl)benzyl alcohol methanesulfonate], the “Mean Maximal Increase in the Heart Rate” value (heart rate; 5 mcg/kg (salt) i.v.) was 6 Beats/Minute, the “Mean Maximal Increase in the Heart Rate” value (heart rate; 25 mcg/kg (salt) i.v.) was 28 Beats/Minute and the “Mean Maximal Increase in the Heart Rate” value (heart rate; 50 mcg/kg (salt) i.v.) was 35 Beats/Minute. The ED50 ([3]; carbachol (Doryl) 1:5 million) was 2.64 µg (base), the “Duration, Mean” value ([3]; dose 6 mcg (base)) was 29.8 ± 4.4 min and the inhibition in vivo at 0.025 mg/kg ([1]; 5 min, 5 min) was 81%. For the same compound, the inhibition in vivo at 0.1 mg/kg ([1]; 5 min, 5 min) was 74%, the inhibition in vivo at 0.025 mg/kg ([1]; 0.5 h, 30 min) was 22% and the inhibition in vivo at 0.1 mg/kg ([1]; 0.5 h, 30 min) was 63%. For the same compound, the inhibition in vivo at 0.025 mg/kg ([1]; 1 h, 60 min) was 24%, the inhibition in vivo at 0.1 mg/kg ([1]; 1 h, 60 min) was 22% and the inhibition in vivo at 0.025 mg/kg ([1]; 2 h, 120 min) was 0%. The inhibition in vivo at 0.1 mg/kg ([1]; 2 h, 120 min) was 25%, the inhibition in vivo at 0.1 mg/kg ([1]; 3 h, 180 min) was 9% and the inhibition in vivo at 0.1 mg/kg ([1]; 5 h, 300 min) was 10%.

In the case of CC(C)(C)NCC(=O)c1ccc(OC(=O)C(C)(C)C)c(OC(=O)C(C)(C)C)c1.Cl [3,4-bis(pivalyloxy)phenyl tert-butylaminomethyl ketone hydrochloride], the solubility [4] is reported as ≥ 10 mg/mL.

For CCCC(C)(C)C(=O)Oc1ccc(C(O)CNC(C)(C)C)cc1OC(=O)C(C)(C)CCC (stereo not drawn) [Example 8, 3,4-bis(2,2-dimethylpentanoyloxy)-alpha-(tert-butylaminomethyl)benzyl alcohol], the solubility [4] was ≥ 50 mg/mL.

With Cc1ccc(C(=O)Oc2ccc(C(O)CNC(C)(C)C)cc2O)cc1 (stereo not drawn) [Example 69, 3-hydroxy-4-(p-toluyloxy)-alpha-(tert-butylaminomethyl)benzyl alcohol methanesulfonate] the solubility [4] was ≥ 50 mg/mL.

In the case of COc1ccc(C(=O)Oc2cc(C(O)CNC(C)(C)C)ccc2OC(C)=O)cc1 (stereo not drawn) [Example 149, 3-(p-anisoyloxy)-4-acetoxy-alpha-(tert-butylaminomethyl)benzyl alcohol methanesulfonate], the “Mean Maximal Increase in the Heart Rate” value (heart rate; 0.8 mcg/kg (salt) i.v.) is reported as 19 Beats/Minute, the “Mean Maximal Increase in the Heart Rate” value (heart rate; 6.4 mcg/kg (salt) i.v.) is reported as 47 Beats/Minute and the “Mean Maximal Increase in the Heart Rate” value (heart rate; 32 mcg/kg (salt) i.v.) is reported as 70 Beats/Minute. The ED50 ([3]; Doryl conc. 1:10 million) was 0.91 µg (base), the “Duration, Mean” value ([3]; dose 2 mcg (base), Doryl conc. 1:10 million) was 13.2 ± 1.9 min and the inhibition in vivo at 0.0005 mg/kg ([1]; 5 min, 5 min) was 54%. For the same compound, the inhibition in vivo at 0.006 mg/kg ([1]; 5 min, 5 min) was 100%, the inhibition in vivo at 0.0005 mg/kg ([1]; 0.5 h, 30 min) was 19% and the inhibition in vivo at 0.006 mg/kg ([1]; 0.5 h, 30 min) was 32%. The inhibition in vivo at 0.0005 mg/kg ([1]; 1 h, 60 min) was 19%, the inhibition in vivo at 0.006 mg/kg ([1]; 1 h, 60 min) was 24% and the inhibition in vivo at 0.005 mg/kg ([2]; 5 min, 5 min) was 0%. The inhibition in vivo at 0.04 mg/kg ([2]; 5 min, 5 min) was 78%, the inhibition in vivo at 0.16 mg/kg ([2]; 5 min, 5 min) was 72% and the inhibition in vivo at 0.005 mg/kg ([2]; 0.5 h, 30 min) was 7%. For the same compound, the inhibition in vivo at 0.04 mg/kg ([2]; 0.5 h, 30 min) was 52%, the inhibition in vivo at 0.16 mg/kg ([2]; 0.5 h, 30 min) was 61% and the inhibition in vivo at 0.005 mg/kg ([2]; 1 h, 60 min) was 13%. For the same compound, the inhibition in vivo at 0.04 mg/kg ([2]; 1 h, 60 min) was 44%, the inhibition in vivo at 0.16 mg/kg ([2]; 1 h, 60 min) was 56% and the inhibition in vivo at 0.005 mg/kg ([2]; 2 h, 120 min) was 5%. The inhibition in vivo at 0.04 mg/kg ([2]; 2 h, 120 min) was 31%, the inhibition in vivo at 0.16 mg/kg ([2]; 2 h, 120 min) was 11% and the inhibition in vivo at 0.005 mg/kg ([2]; 3 h, 180 min) was 9%. It also gave an inhibition in vivo at 0.16 mg/kg ([2]; 3 h, 180 min) of 22%, an inhibition in vivo at 0.005 mg/kg ([2]; 4 h, 240 min) of 0% and an inhibition in vivo at 0.04 mg/kg ([2]; 4 h, 240 min) of 35%. For the same compound, the inhibition in vivo at 0.16 mg/kg ([2]; 4 h, 240 min) was 23% and the inhibition in vivo at 0.04 mg/kg ([2]; 5 h, 300 min) was 35%.
